In experiment [1] the test system is stimulated primary human T cells. The experiment can be described thus: T cell proliferation assay (rescue of proliferation in presence of 100 uM ATP). It is filed as cell-based. The procedure:
Purpose. The aim of this study was to determine the potency of equilibrative nucleoside transporter 1 (ENT1) inhibitors to rescue proliferation by stimulated primary human T cells incubated in the presence of 100 uM Adenosine triphosphate (ATP) with: • Condition A: X-VIVO15 • Condition B: X-VIVO15, 2% Human Serum Albumine (HSA) and 0.1% α-1-Acid Glycoprotein (AAG)
Method. Cryopreserved purified human CD3+ T cells were thawed and washed twice with RPMI1640 medium, UltraGlutamine containing 10% hiFBS.
Cells were suspended in PBS containing 10% hiFBS. Cells were stained with CFSE by adding 2 μM solution in PBS, to get a final 1 μM CFSE solution. Cells were incubated while rotating for 5 minutes. Reaction was stopped by adding PBS with 10% FBS and cells were centrifuged for 5 minutes at 1500 rpm.
Cells were resuspended at 1.6×10^6 cells/mL, either in X-VIVO15 medium or in 4% Human Serum Albumin and 0.2% α-1-Acid Glycoprotein. 50 μL of cell suspension (8×10^4 T cells) was added to wells of sterile round-bottom 96-well plates. Cells were activated by adding 50 μL of anti-CD3 anti-CD28 coated microbeads, suspended either in XVIVO-15 medium or in 4% HSA and 0.2% α-1-Acid Glycoprotein, at a ratio of one microbead per two cells.
Serial dilutions of the ENT1 inhibitors were prepared in X-VIVO15 from 10 mM stock solutions in DMSO, and 50 μL was added to the wells.
ATP powder was diluted in X-VIVO15, and 50 μL of this compound was added to the wells to reach a final assay concentration of 100 μM. Final volume of 200 μL.
The experiments were also performed in 384 well plates—all volumes reduced by a factor of 4 ([…]) with a final volume of 50 μL.
Experiments were performed in duplicate. The cells were placed in a 37° C. humidified tissue culture incubator with 5% CO2 for 72 hours for 96 well plates, 96 hours for 384 well plates. After 72 or 96 hours, proliferation was measured determined by CFSE dilution via flow cytometry.
Results. Compounds of the invention have good ENT1 inhibitory properties.

For experiment [2], the target named is T1, Human phosphodiesterase-5 (Homo sapiens, UniProt O76074).
T1 construct: using an enzyme isolated from human platelets at Eurofins-Cerep; tissue Eurofins-Cerep; host or cells: human platelets
The experiment can be described thus: PDE5 (h) (non-selective) assay. It is filed as biochemical. The procedure:
The test compound (compound 72), reference compound or water (control) were added to a buffer containing 40 mM Tris/HCl (pH 7.4), 8 mM MgCl2 0.21% BSA, 0.5 μg/ml calmoduline and 0.5 mM CaCl2), 1.125 μM cGMP and 0.027 μCi [3H]cGMP. Thereafter, the reaction was initiated by addition of the enzyme (about 0.2 U) and the mixture was incubated for 20 min at 22° C. For basal control measurements, the enzyme was omitted from the reaction mixture. Following incubation SPA beads were added. After 30 min at 22° C. under shaking, the amount of [3H]5′GMP was quantified with a scintillation counter (MicroBeta, Perkin Elmer). The results were expressed as a percent inhibition of the control enzyme activity. The standard inhibitory reference compound was Nitrendipine, which was tested in each experiment at several concentrations to obtain an inhibition curve from which its IC50 value was calculated. • Human phosphodiesterase-5 quantified by measuring the formation of 5′GMP from cGMP using an enzyme isolated from human platelets at Eurofins-Cerep.
The test compound (compound 72), reference compound or water (control) were added to a buffer containing 40 mM Tris/HCl (pH 7.8), 3 mM MgCl2, 1.4 mM DTT, 0.21% BSA, 200 mM NH4Cl, 1 μM cGMP and 0.1 μCi [3H]cGMP. […] After 20 min at 22° C. under shaking, the amount of [3H]5′GMP was quantified with a scintillation counter (MicroBeta, Perkin Elmer). […]

In experiment [3] the target is T2, Human phosphodiesterase-10A2 (Homo sapiens, UniProt Q9Y233).
T2 construct: host or cells: Sf9 cells
Nature of the experiment: PDE10A2 (h) assay. It is filed as biochemical. The protocol:
The test compound (compound 72), reference compound or water (control) were added to a buffer containing 40 mM Tris/HCl (pH 7.4) and 8 mM MgCl2, 180 nM cAMP and 0.1 μCi [3H]cAMP. Thereafter, the reaction was initiated by addition of the enzyme (about 0.8 U) and the mixture was incubated for 20 min at 22° C. For basal control measurements, the enzyme was omitted from the reaction mixture. Following incubation SPA beads were added. After 30 min at 22° C. under shaking, the amount of [3H]5′AMP was quantified with a scintillation counter (MicroBeta, Perkin Elmer). The results were expressed as a percent inhibition of the control enzyme activity. The standard inhibitory reference compound was trequinsin, which was tested in each experiment at several concentrations to obtain an inhibition curve from which its IC50 value was calculated. • Human phosphodiesterase-10A2 quantified by measuring the formation of 5′AMP from cAMP using a human recombinant enzyme expressed in Sf9 cells.
The test compound (compound 72), reference compound or water (control) were added to a buffer containing 40 mM Tris/HCl (pH 7.4) and 8 mM MgCl2, 180 nM cAMP and 0.1 μCi [3H]cAMP. […] After 30 min at 22° C. under shaking, the amount of [3H]5′AMP was quantified with a scintillation counter (MicroBeta, Perkin Elmer). The results were expressed as a percent inhibition of the control enzyme activity. […]

Structures are written as SMILES. Where two headings read alike, the source gives them in different places.

Results on one compound are retold here after patent US20230146675A1, “PYRIMIDO[5,4-d]PYRIMIDINE DERIVATIVES AS ENT INHIBITORS FOR THE TREATMENT OF CANCERS, AND COMBINATION THEREOF WITH ADENOSINE RECEPTOR ANTAGONISTS” (ITEOS BELGIUM SA, priority 2020, published 2023).

T2 sequence (Q9Y233 267-1055): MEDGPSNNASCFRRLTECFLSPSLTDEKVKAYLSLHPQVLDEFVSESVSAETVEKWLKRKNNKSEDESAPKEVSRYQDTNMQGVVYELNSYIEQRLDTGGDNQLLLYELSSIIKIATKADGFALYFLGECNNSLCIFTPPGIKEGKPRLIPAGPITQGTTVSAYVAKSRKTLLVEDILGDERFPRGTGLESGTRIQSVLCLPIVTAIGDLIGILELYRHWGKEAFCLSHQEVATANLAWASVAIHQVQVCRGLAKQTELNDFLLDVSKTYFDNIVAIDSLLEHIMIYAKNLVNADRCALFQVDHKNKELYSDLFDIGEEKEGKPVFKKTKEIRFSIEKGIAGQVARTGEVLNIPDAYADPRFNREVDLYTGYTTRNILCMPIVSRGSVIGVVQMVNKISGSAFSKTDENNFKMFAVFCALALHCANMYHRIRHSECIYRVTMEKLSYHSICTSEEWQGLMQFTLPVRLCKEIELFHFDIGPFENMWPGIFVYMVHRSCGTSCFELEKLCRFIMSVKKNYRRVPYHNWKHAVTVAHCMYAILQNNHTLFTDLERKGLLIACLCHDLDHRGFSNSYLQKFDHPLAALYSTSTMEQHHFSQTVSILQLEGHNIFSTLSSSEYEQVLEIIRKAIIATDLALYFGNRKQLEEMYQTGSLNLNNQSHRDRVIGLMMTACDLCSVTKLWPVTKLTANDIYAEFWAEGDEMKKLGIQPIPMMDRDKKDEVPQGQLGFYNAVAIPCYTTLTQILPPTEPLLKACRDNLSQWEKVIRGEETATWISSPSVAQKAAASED

As to `COCCN(CCOC)c1nc(N2CCN(C)C(=O)C2)c2nc(N(CCOC)CCOC)nc(N3CCC(OC)CC3)c2n1` [Compound 72, 4-(2,6-bis(bis(2-methoxyethyl)amino)-8-(4-methoxypiperidin-1-yl)pyrimido[5,4-d]pyrimidin-4-yl)-1-methylpiperazin-2-one], the IC50 was 0.1 to 0.5 µM in experiment [1] (Condition A: X-VIVO15, read-out: TCell proliferation (Condition A) IC50); 0.1 to 0.5 µM in experiment [1] (Condition B: X-VIVO15, 2% HSA and 0.1% AAG, read-out: TCell proliferation (Condition B) IC50); 1 to 10 µM in experiment [2] (read-out: PDE5 (h) (non-selective) IC50); 1.08 µM in experiment [2] (read-out: PDE5 IC50); 1 to 10 µM in experiment [3].
